Source: patent US8956646B2, “Zwitterionic lipids” (The Regents of the University of California, priority 2010, dated 2015)
“Also recorded” adds a separate entry of the source.

Experiments:
[1] = literature values, cited from earlier work; for Transition Temperatures (° C.), PC: PC headgroup; for Transition Temperatures (° C.), PE: PE headgroup
[2] = ZNLP hydrodynamic diameter, zeta potential and encapsulation efficiency; format: physicochemical; conditions: ZNLP encapsulating siRNA
Description: 5-10 min after particle formation liposomes are extruded through either 50 nm or 80 nm polycarbonate membranes 7 times. Methanol can be removed by either evaporation or dialysis.
FIG. 29 is a table showing ZNLP encapsulating siRNA: hydrodynamic diameter and zeta potential: siRNA was encapsulated into ZNLP from various zwitterionic lipids.
FIG. 30 is a table showing the effect of helper lipids on size and encapsulation efficiency: Changing helper lipid and lipid composition affects size and encapsulation efficiency of ZNLP. DOBA-Q formed small lipid vesicles≦80 nm. […] All lipid formulations display negative/neutral zeta potential.

[3] = SBL liposome formation, diameter and PDI in various salts; format: physicochemical; parameters: key to Liposome diameter (nm): DNF=Did Not Form, no liposomes formed
Description: The five SBLs were first examined for their ability to make vesicles under standard buffer conditions (10 mM HEPES, 140 mM NaCl, pH 7.4). We observed that none of the five SBLs were able to form stable liposomes after thin film rehydration in this buffer followed by sonication at 80° C. […] To test if the SB headgroup inner salt interactions could be disrupted by an increase in salt concentration, the same liposome formation process was performed at increasing NaCl concentrations. Salts with different anions were also tested to determine if those predicted to have greater binding than Cl^− would allow for liposome formation at concentrations where NaCl was not able to. Liposome-formation results are shown in Table 4 for all five SBLs with a variety of salts and at various NaCl concentrations.
Liposome preparations were made at 26 mM lipid in 10 mM HEPES buffer, pH 7.4 with the specified salt concentration. All preparations were rehydrated and sonicated at 80° C. for 7 minutes, allowed to cool for 5 minutes and then measured.
Liposome diameters were measured both five minutes after sonication and at 24 hours. DPSB and DSSB in NaI both formed gels and could not be measured and DPSB and DSSB with KBr precipitated into particles too large and polydisperse for measurement.

[4] = Phase transition temperatures of sulfobetaine lipids (DSC); format: physicochemical; conditions: for inner/outer salt form (high/low transition) as function of NaCl concentration: DSC, 10 mM HEPES pH 7.4, NaCl up to 1M; for Transition Temperatures (° C.), SB Inner Salt: hypothesized inner salt form, observed high phase transition; for Transition Temperatures (° C.), SB Outer Salt: hypothesized outer salt form, observed low phase transition
Description: All buffers contain 10 mM HEPES, pH 7.4. Preparations were made at 26 mM SB lipid by thin film rehydration at 80° C., followed by brief 20 second bursts of sonication at 80° C. (˜2-4 times) to make dispersions of large bilayer fragments.
Based on our observations that SBL liposome formation and stability is largely dependent on salt composition and concentration we sought to determine if these effects changed the transition temperatures of the liposomes. The data in FIG. 3 clearly depicts a bi-modal phase transition behavior for the SBLs. Without salt, the majority of the SBLs are likely in one of the inner salt forms supported by the observed elevated transition temperatures.
Inner and outer salt conformations of the SBLs are hypothesized to coordinate to the observed high and low phase transitions, respectively.

[5] = Zeta/surface potential of SBL liposomes in salt solutions; format: physicochemical; conditions: order of anions; data not shown
Source text: The vesicles formed in these three salts were all reasonably small, with those formed in KBr having, on average, a slighter larger diameter. This may be due the weaker binding of Br^− to the cationic region of the SBLs relative to I^− and ClO4^−, which would result in a higher percentage of SBLs in the inner-salt conformation.

[6] = Zeta potential of BLL containing vesicles as a function of pH; format: physicochemical; conditions: changing ratio of DOBAQ:DOPC
Description: Liposomes containing quaternary BLL remain neutral at pH>pI, while liposomes containing tertiary BLL move from neutral to anionic as pH increases above the pI due to deprotonation of the amine.
All other lipids show pH responsive behavior, with 4° BLL generally transitioning from cationic to neutral, and 3° from cationic to neutral to anionic.
Further analysis is required to fully understand this behavior.

[7] = Zeta potential of liposomes as a function of calcium concentration; format: physicochemical; conditions: across physiological Ca2+ concentrations
Description: Liposomes were prepared from either DOPC or DOCPe and their zeta potentials were measured in a Malvern zetaNano instrument as a function of the calcium concentration. Liposomes prepared from either lipid become more positively charged as the Ca^2+ concentration increases.

[8] = 0 mM NaCl, 26 mM lipid, 10 mM HEPES pH 7.4
[9] = 150 mM KBr, five minutes after sonication
[10] = 150 mM NaCl, 26 mM lipid, 10 mM HEPES pH 7.4
[11] = 150 mM NaClO4, five minutes after sonication
[12] = 150 mM NaI, five minutes after sonication
[13] = 500 mM NaCl, 26 mM lipid, 10 mM HEPES pH 7.4
[14] = 1000 mM NaCl, 26 mM lipid, 10 mM HEPES pH 7.4

| SMILES | Liposome diameter (nm) [3, 8] | Liposome diameter (nm) ([3]; 150 mM KBr (24 h)) | Liposome diameter (nm) [3, 9] [nm] | PDI [3, 9] | Liposome diameter (nm) [3, 10] | Liposome diameter (nm) ([3]; 150 mM NaClO4 (24 h)) | PDI ([3]; 150 mM NaClO4 (24 h)) | Liposome diameter (nm) [3, 11] [nm] | PDI [3, 11] | Liposome diameter (nm) ([3]; 150 mM NaF) | Liposome diameter (nm) ([3]; 150 mM NaI (24 h)) | Liposome diameter (nm) [3, 12] [nm] | PDI [3, 12] | Liposome diameter (nm) [3, 13] [nm] | PDI [3, 13] | Liposome diameter (nm) [3, 14] [nm] | PDI [3, 14] | also measured |
| --- | --- | --- | --- | --- | --- | --- | --- | --- | --- | --- | --- | --- | --- | --- | --- | --- | --- | --- |
| CCCCCCCCCCCCCC(=O)OC[C@H](COP(=O)([O-])OCC[N+](C)(C)C)OC(=O)CCCCCCCCCCCCC [C14 PC] |  |  |  |  |  |  |  |  |  |  |  |  |  |  |  |  |  | Transition Temperatures (° C.), PC [1]: 24.2 °C |
| CCCCCCCCCCCCCC(=O)OC[C@H](COP(=O)(O)OCCN)OC(=O)CCCCCCCCCCCCC [C14 PE] |  |  |  |  |  |  |  |  |  |  |  |  |  |  |  |  |  | Transition Temperatures (° C.), PE [1]: 49.4 °C |
| CCCCCCCCCCCCCCCC(=O)OC[C@H](COP(=O)([O-])OCC[N+](C)(C)C)OC(=O)CCCCCCCCCCCCCCC [C16 PC] |  |  |  |  |  |  |  |  |  |  |  |  |  |  |  |  |  | Transition Temperatures (° C.), PC [1]: 41.7 °C |
| CCCCCCCCCCCCCCCC(=O)OCC(COP(=O)(O)OCCN)OC(=O)CCCCCCCCCCCCCCC (stereo not shown) [C16 PE] |  |  |  |  |  |  |  |  |  |  |  |  |  |  |  |  |  | Transition Temperatures (° C.), PE [1]: 63.5 °C |
| CCCCCCCCCCCCCCCCCC(=O)OC[C@H](COP(=O)([O-])OCC[N+](C)(C)C)OC(=O)CCCCCCCCCCCCCCCCC [C18 PC] |  |  |  |  |  |  |  |  |  |  |  |  |  |  |  |  |  | Transition Temperatures (° C.), PC [1]: 55.3 °C |
| CCCCCCCCCCCCCCCCCC(=O)OC[C@H](COP(=O)(O)OCCN)OC(=O)CCCCCCCCCCCCCCCCC [C18 PE] |  |  |  |  |  |  |  |  |  |  |  |  |  |  |  |  |  | Transition Temperatures (° C.), PE [1]: 74.4 °C |
| CCCCC/C=C\C/C=C\CCCCCCCC(=O)OC[C@H](COP(=O)(O)OCCN)OC(=O)CCCCCCC/C=C\C/C=C\CCCCC [DIinPE, reference compound] |  |  |  |  |  |  |  |  |  |  |  |  |  |  |  |  |  | siRNA encapsulation efficiency [2]: decreases encapsulation efficiency |
| CCCCCCCCCCCC(=O)OCC(C[N+](C)(C)CCCS(=O)(=O)[O-])OC(=O)CCCCCCCCCCC (stereo not shown) [DLSB] | DNF | 74.35 nm | 54.56 | 0.276 | 1728 nm | 37.32 | 0.251 | 30.46 | 0.205 | DNF | 39.24 nm | 28.93 | 0.163 | 41.7 | 0.296 | 56.5 | 0.361 | ability to make vesicles under standard buffer conditions ([3]; 10 mM HEPES, 140 mM NaCl, pH 7.4, thin film rehydration, sonication at 80° C.): formed large, polydisperse structures; PDI ([3]; 150 mM KBr (24 h)): 0.254; PDI [3, 10]: 0.708; PDI ([3]; 150 mM NaI (24 h)): 0.215 |
| CCCCCCCCCCCCCC(=O)OCC(C[N+](C)(C)CCCS(=O)(=O)[O-])OC(=O)CCCCCCCCCCCCC (stereo not shown) [DMSB] | DNF | 31.67 nm | 28.53 | 0.160 | DNF | 43.68 | 0.24 | 41.76 | 0.239 | DNF | 38.69 nm | 35.3 | 0.232 | 63.92 | 0.385 | 76.8 | 0.233 | PDI ([3]; 150 mM KBr (24 h)): 0.181; PDI ([3]; 150 mM NaI (24 h)): 0.250; liposome formation ([3]; 500 mM NaF): unable to form liposomes; phase transitions observed ([4]; 150 mM NaClO4): only the high transition; phase transitions observed ([4]; 150 mM NaF): only the low transition; inner/outer salt form (high/low transition) as function of NaCl concentration [4]: existing as the outer salt with a high transition temperature for all NaCl concentrations up to 1M; Transition Temperatures (° C.), SB Inner Salt [4]: 48 °C; Transition Temperatures (° C.), SB Outer Salt [4]: 25-30 °C; zeta-potential (surface potential) in various salt solutions [5]: most negative for ClO4^−>I^−>Br^−>Cl^− |
| CCCCCCCC/C=C\CCCCCCCC(=O)OCC(C[N+](C)(C)Cc1ccc(C(=O)[O-])cc1)OC(=O)CCCCCCC/C=C\CCCCCCCC (stereo not shown) [DOBAQ] |  |  |  |  |  |  |  |  |  |  |  |  |  |  |  |  |  | Zeta potential as function of pH, effect of BLL:DOPC ratio [6]: general relationship between pH and zeta potential is maintained at all ratios tested; ZNLP size (hydrodynamic diameter) [2]: ≤ 80 nm |
| CCCCCCCC/C=C\CCCCCCCC(=O)OCC(C[N+](C)(C)CCOP(=O)([O-])OCC)OC(=O)CCCCCCC/C=C\CCCCCCCC (stereo not shown) [DOCPe] |  |  |  |  |  |  |  |  |  |  |  |  |  |  |  |  |  | zeta potential of liposomes [7]: remain negative |
| CCCCCCCC/C=C\CCCCCCCC(=O)OC[C@H](COP(=O)([O-])OCC[N+](C)(C)C)OC(=O)CCCCCCC/C=C\CCCCCCCC [DOPC, reference compound] |  |  |  |  |  |  |  |  |  |  |  |  |  |  |  |  |  | zeta potential of liposomes [7]: become positively charged |
| CCCCCCCC/C=C\CCCCCCCC(=O)OCC(C[N+](C)(C)CCCS(=O)(=O)[O-])OC(=O)CCCCCCC/C=C\CCCCCCCC (stereo not shown) [DOSB] | DNF | 137.6 nm | 120.8 | 0.260 | DNF | 69.18 | 0.235 | 67.7 | 0.250 | DNF | 99.24 nm | 90.58 | 0.246 | 126.9 | 0.197 | 118.9 | 0.176 | PDI ([3]; 150 mM KBr (24 h)): 0.353; PDI ([3]; 150 mM NaI (24 h)): 0.253 |
| CCCCCCCCCCCCCCCC(=O)OCC(C[N+](C)(C)CCCS(=O)(=O)[O-])OC(=O)CCCCCCCCCCCCCCC (stereo not shown) [DPSB] | DNF | Precipitated | 64.35 | 0.134 | DNF | 42.71 | 0.353 | 35.1 | 0.220 | DNF | Formed Gel | 57.45 | 0.296 | 66.95 | 0.253 | 92.53 | 0.275 | phase transitions observed ([4]; 150 mM NaClO4): only the high transition; phase transitions observed ([4]; 150 mM NaF): only the low transition; temperature of residual inner salt transition ([4]; 500 mM NaCl): 58 °C; inner/outer salt form (high/low transition) as function of NaCl concentration [4]: switches from the inner salt to the outer salt at 500 mM; Transition Temperatures (° C.), SB Inner Salt [4]: 60 °C; Transition Temperatures (° C.), SB Outer Salt [4]: 43 °C |
| CCCCCCCCCCCCCCCCCC(=O)OCC(C[N+](C)(C)CCCS(=O)(=O)[O-])OC(=O)CCCCCCCCCCCCCCCCC (stereo not shown) [DSSB] | DNF | Precipitated | 102.3 | 0.123 | DNF | 71.96 | 0.282 | 42.45 | 0.258 | DNF | Formed Gel | 43.31 | 0.231 | 122.7 | 0.285 | 137.9 | 0.404 | phase transitions observed ([4]; 150 mM NaF, NaCl, KBr, NaI, NaClO4): both transitions for all salts except NaClO4; inner/outer salt form (high/low transition) as function of NaCl concentration [4]: never exists completely as the inner salt conformation, but does reside as the outer salt form at 500 mM; also recorded: small low transition peak in a buffer without NaCl; Transition Temperatures (° C.), SB Inner Salt [4]: 68 °C; Transition Temperatures (° C.), SB Outer Salt [4]: 57 °C |
